Marks after values point to notes of the source that are not given here.
Test system: subjects with mild-to-moderate AD
Assay: ADCS-ADL (Activities of Daily Living) change from baseline, 57-week Phase 2a study and 208-week extension study
Type: in vivo, human
Design: key to unadjusted change in ADCS-ADL score, Mean ± Std. Dev: change from baseline on ADCS-ADL scale 0–78, higher = greater function
Conditions: for ADCS-ADL Cohen's d: week 57, compared to standard of care
Excerpt: The present study integrates and analyzes data and samples from two consecutive clinical trials: 57-week study and 208-week study. 57-week study was a multicenter Phase 2a clinical trial of the drug ANAVEX2-73 that recruited a sample of 32 subjects with mild-to-moderate AD. It consisted of two parts: Part A was a simple randomized, open-label, two-period, cross-over, adaptive trial lasting up to 5 weeks. Each period involved one specific administration route and two possible dose levels: in one period the oral dose (30 mg or 50 mg) was administrated and in the other period an intravenous (IV) form (3 mg or 5 mg) was administered, making a total of 8 possible dose administration schemes in Part A (details available in FIG. 2A). The two periods were separated by a wash-out period of 12 days where no dose was given.
Part B, following immediately after Part A, was an open-label extension of the oral daily dose for an additional 52 weeks. The primary endpoint of 57-week study was to establish the safety and tolerability of the drug. Secondary endpoints aimed at establishing the relationship between dosing regimen and pharmacodynamics-exploratory efficacy outcomes of cognition and function. Cognition was assessed by the Mini Mental State Examination (MMSE), while functional abilities by the Alzheimer's Disease Co-operative Study—Activities of Daily Living Inventory (ADCS-ADL). Additional cognitive measures included the Cogstate Brief Battery (CBB), and functional measures of Electroencephalography and Event-Related Potential (EEG and ERP). Part B continued an adaptive oral administration scheme. Table 12 summarizes mean oral dose administration during the 57-week study study.
Due to favorable safety and tolerability profile of the 57-week study (Table 2), and in response to requests from patients and caregivers, a 208-week open-label extension study (208-week study) was carried out immediately after completion of 57-week study Part B. 208-week study enrolled the 24 subjects who completed Part B and applied similarly an adaptive daily oral administration scheme. ANAVEX2-73-003 involves continuous evaluation of safety and efficacy as measured by the MMSE and ADCS-ADL. At week 148 (interim time point for analyses), data on the subjects remaining in the study (n=21) was analyzed for efficacy outcomes. This report was drafted using data available at week 148, while ANAVEX2-73-003 is still ongoing.
Exploratory clinical efficacy in this study was defined as change from baseline of each patient's cognitive (MMSE) and functional ability (ADCS-ADL) scores. The MMSE57 is a widely used, validated instrument in clinical AD research, including as a cognitive outcome measure in drug trials. The range of the scale is from 0 to 30, with a higher score indicating higher cognitive function. The ADCS-ADL58 is undertaken in a structured caregiver interview format and assesses performance in activities of daily living of patients with AD. The scale is from 0 to 78, with a higher score indicating greater function. The ADCS-ADL has shown to have good test-retest reliability 59. The MMSE and the ADCS-ADL were assessed during pre-specified clinical site visits across 14 different time points during the 57-week study (Weeks 0 and 5 in Part A; Weeks 17, 31, 41, 53, and 57 in Part B), and 208-week study (Weeks 70, 83, 96, 109, 122, 135, and 148) studies.
Corresponding Delta scores were calculated using the difference between values at each visit and at baseline for each individual patient, with a focus on Week 57. In addition, to lower the impact of noise in MMSE and ADCS-ADL scores, a Slope was estimated using a linear regression across all available time points for each individual patient. The derived scores describe the progression of exploratory efficacy data from baseline at several specific time points (Deltas) and over a set period of time (Slope). […]

CN(C)CC1CCOC1(c1ccccc1)c1ccccc1.Cl (centres unmarked) [ANAVEX2-73, tetrahydro-N,N-dimethyl-2,2-diphenyl-3-furanmethanamine hydrochloride]
unadjusted change in ADCS-ADL score, Mean ± Std. Dev (Group 3 (n 11), Week 70): −5.09 ± 10.70 | unadjusted change in ADCS-ADL score, Mean ± Std. Dev (Group 3 (n 11), Week 83): −5.55 ± 12.65 | unadjusted change in ADCS-ADL score, Mean ± Std. Dev (Group 3 (n 11), Week 96): −8.64 ± 16.10 | unadjusted change in ADCS-ADL score, Mean ± Std. Dev (Group 3 (n 11), Week 109): −9.45 ± 15.13 | unadjusted change in ADCS-ADL score, Mean ± Std. Dev (Group 3 (n 11), Week 122): −9.27 ± 12.17 | unadjusted change in ADCS-ADL score, Mean ± Std. Dev (Group 3 (n 11), Week 135): 11.09 ± 16.16 | unadjusted change in ADCS-ADL score, Mean ± Std. Dev (Group 3 (n 11), Week 148): −14.73 ± 17.70 | unadjusted change in ADCS-ADL score, Mean ± Std. Dev (Group 4 (n 14), Week 148): −19.43 ± 18.50 | unadjusted change in ADCS-ADL score, Mean ± Std. Dev (Group 4 (n 15), Week 109): −12.60 ± 15.00 | unadjusted change in ADCS-ADL score, Mean ± Std. Dev (Group 4 (n 15), Week 122): −15.20 ± 17.30 | unadjusted change in ADCS-ADL score, Mean ± Std. Dev (Group 4 (n 16), Week 0): 0.00 ± 0.00 | unadjusted change in ADCS-ADL score, Mean ± Std. Dev (Group 4 (n 16), Week 5): −1.25 ± 5.54 | unadjusted change in ADCS-ADL score, Mean ± Std. Dev (Group 4 (n 16), Week 17): −0.44 ± 3.42 | unadjusted change in ADCS-ADL score, Mean ± Std. Dev (Group 4 (n 16), Week 31): −2.31 ± 6.00 | unadjusted change in ADCS-ADL score, Mean ± Std. Dev (Group 4 (n 16), Week 41): −3.31 ± 7.03 | unadjusted change in ADCS-ADL score, Mean ± Std. Dev (Group 4 (n 16), Week 53): 3.81 ± 7.24 | unadjusted change in ADCS-ADL score, Mean ± Std. Dev (Group 4 (n 16), Week 57): −3.38 ± 7.60 | unadjusted change in ADCS-ADL score, Mean ± Std. Dev (Group 4 (n 16), Week 70): −6.94 ± 10.87 | unadjusted change in ADCS-ADL score, Mean ± Std. Dev (Group 4 (n 16), Week 96): −13.25 ± 16.77 | unadjusted change in ADCS-ADL score, Mean ± Std. Dev (Group 4 (n 16), Week 135): −19.12 ± 19.67 | unadjusted change in ADCS-ADL score, Mean ± Std. Dev (Group 5 (n 4), Week 5): −3.25 ± 11.30 | unadjusted change in ADCS-ADL score, Mean ± Std. Dev (Group 5 (n 4), Week 31): −8.75 ± 3.30 | unadjusted change in ADCS-ADL score, Mean ± Std. Dev (Group 5 (n 4), Week 122): −27.75 ± 12.26 | unadjusted change in ADCS-ADL score, Mean ± Std. Dev (Group 5 (n 5), Week 0): 0.00 ± 0.00 | unadjusted change in ADCS-ADL score, Mean ± Std. Dev (Group 5 (n 5), Week 17): −4.20 ± 4.09 | unadjusted change in ADCS-ADL score, Mean ± Std. Dev (Group 5 (n 5), Week 41): 6.00 ± 3.00 | unadjusted change in ADCS-ADL score, Mean ± Std. Dev (Group 5 (n 5), Week 53): −10.00 ± 6.78 | unadjusted change in ADCS-ADL score, Mean ± Std. Dev (Group 5 (n 5), Week 57): −11.20 ± 8.93 | unadjusted change in ADCS-ADL score, Mean ± Std. Dev (Group 5 (n 5), Week 70): −14.80 ± 9.63 | unadjusted change in ADCS-ADL score, Mean ± Std. Dev (Group 5 (n 5), Week 83): −13.20 ± 11.52 | unadjusted change in ADCS-ADL score, Mean ± Std. Dev (Group 5 (n 5), Week 96): −18.60 ± 11.67 | unadjusted change in ADCS-ADL score, Mean ± Std. Dev (Group 5 (n 5), Week 109): −19.20 ± 13.31 | unadjusted change in ADCS-ADL score, Mean ± Std. Dev (Group 5 (n 5), Week 135): −24.00 ± 14.65 | unadjusted change in ADCS-ADL score, Mean ± Std. Dev (Group 5 (n 5), Week 148): −26.00 ± 16.17 | unadjusted change in ADCS-ADL score, Mean ± Std. Dev (Group 6 (n 2), Week 5): 0.50 ± 9.19 | unadjusted change in ADCS-ADL score, Mean ± Std. Dev (Group 6 (n 2), Week 31): −10.50 ± 3.54 | unadjusted change in ADCS-ADL score, Mean ± Std. Dev (Group 6 (n 3), Week 0): 0.00 ± 0.00 | unadjusted change in ADCS-ADL score, Mean ± Std. Dev (Group 6 (n 3), Week 17): −5.00 ± 5.20 | unadjusted change in ADCS-ADL score, Mean ± Std. Dev (Group 6 (n 3), Week 41): −6.67 ± 4.04 | unadjusted change in ADCS-ADL score, Mean ± Std. Dev (Group 6 (n 3), Week 53): −12.67 ± 8.02 | unadjusted change in ADCS-ADL score, Mean ± Std. Dev (Group 6 (n 3), Week 57): −14.67 ± 10.50 | unadjusted change in ADCS-ADL score, Mean ± Std. Dev (Group 6 (n 3), Week 70): −18.00 ± 12.12 | unadjusted change in ADCS-ADL score, Mean ± Std. Dev (Group 6 (n 3), Week 83): −17.00 ± 14.11 | unadjusted change in ADCS-ADL score, Mean ± Std. Dev (Group 6 (n 3), Week 96): −26.00 ± 8.19 | unadjusted change in ADCS-ADL score, Mean ± Std. Dev (Group 6 (n 3), Week 109): 25.33 ± 14.47 | unadjusted change in ADCS-ADL score, Mean ± Std. Dev (Group 6 (n 3), Week 122): −32.67 ± 8.96 | unadjusted change in ADCS-ADL score, Mean ± Std. Dev (Group 6 (n 3), Week 135): −32.00 ± 13.75 | unadjusted change in ADCS-ADL score, Mean ± Std. Dev (Group 6 (n 3), Week 148): −34.33 ± 15.82 | favorable difference in adjusted ADCS-ADL, higher concentration arm compared with low/medium arm (MMRM-LME, over 148 weeks): 88% | effect of higher concentrations on Delta ADCS-ADL scores (plasma concentration groups, week 57, p=0.03): improved | ADCS-ADL Cohen's d (Absence of COMT_L146fs variant & Baseline MMSE ≥20, N 11): 0.89** | ADCS-ADL Cohen's d (Absence of COMT_L146fs variant, N 16): 0.57* | ADCS-ADL Cohen's d (Absence of SIGMAR1_Q2P variant, N 16): 0.43 | ADCS-ADL Cohen's d (Absence of SIGNAR1_Q2P variant & Baseline MMSE ≥20, N 11): 0.76* | ADCS-ADL Cohen's d (All, N 21): 0.18 | ADCS-ADL Cohen's d (Baseline MMSE ≥20, N 13): 0.66*
